Test results taken from US20130109682A1, “CYCLIC ETHER COMPOUNDS USEFUL AS KINASE INHIBITORS” (NOVARTIS AG, priority 2010, published 2013).
pEC50, pIC50: −log10 of the molar value. Where two headings read alike, the source gives them in different places.

Assays:
[1] = system: KMS11 (human myeloma cell line); test: Cell proliferation assay (CellTiter-Glo), KMS11; assay type: cell-based
Method in brief: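 KMS11 cells in IMDM with 10% FBS and sodium pyruvate, seeded at 2000 cells/well on assay day. Compound added at 2× to equal volume of cells, incubated 3 days at 37° C. Viability read by CellTiter-Glo luminescence; EC50 derived.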

PIM3 [2] = biological target: T1, PIM3 (Homo sapiens, UniProt Q86V86); test: KinaseGlo Pim3 ATP depletion assay; assay type: biochemical
Method in brief: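 Kinase was preincubated 15 min with BAD peptide in HEPES pH 7.5/MgCl2/DTT/BSA before ATP was added. Final concentrations were 40 μM ATP, 100 μM BAD peptide and 2.5% DMSO, with 5 nM enzyme. The reaction ran to ~50% ATP depletion and remaining ATP was read by KinaseGlo Plus luminescence.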

hERG = biological target: T2, hERG (Homo sapiens, UniProt Q12809); test: hERG binding assay ([3H] dofetilide displacement); details: dofetilide displacement; read-out: HERGdof IC50
T2 construct: host or cells: crude membrane suspension
T2 sequence (Q12809 whole entry): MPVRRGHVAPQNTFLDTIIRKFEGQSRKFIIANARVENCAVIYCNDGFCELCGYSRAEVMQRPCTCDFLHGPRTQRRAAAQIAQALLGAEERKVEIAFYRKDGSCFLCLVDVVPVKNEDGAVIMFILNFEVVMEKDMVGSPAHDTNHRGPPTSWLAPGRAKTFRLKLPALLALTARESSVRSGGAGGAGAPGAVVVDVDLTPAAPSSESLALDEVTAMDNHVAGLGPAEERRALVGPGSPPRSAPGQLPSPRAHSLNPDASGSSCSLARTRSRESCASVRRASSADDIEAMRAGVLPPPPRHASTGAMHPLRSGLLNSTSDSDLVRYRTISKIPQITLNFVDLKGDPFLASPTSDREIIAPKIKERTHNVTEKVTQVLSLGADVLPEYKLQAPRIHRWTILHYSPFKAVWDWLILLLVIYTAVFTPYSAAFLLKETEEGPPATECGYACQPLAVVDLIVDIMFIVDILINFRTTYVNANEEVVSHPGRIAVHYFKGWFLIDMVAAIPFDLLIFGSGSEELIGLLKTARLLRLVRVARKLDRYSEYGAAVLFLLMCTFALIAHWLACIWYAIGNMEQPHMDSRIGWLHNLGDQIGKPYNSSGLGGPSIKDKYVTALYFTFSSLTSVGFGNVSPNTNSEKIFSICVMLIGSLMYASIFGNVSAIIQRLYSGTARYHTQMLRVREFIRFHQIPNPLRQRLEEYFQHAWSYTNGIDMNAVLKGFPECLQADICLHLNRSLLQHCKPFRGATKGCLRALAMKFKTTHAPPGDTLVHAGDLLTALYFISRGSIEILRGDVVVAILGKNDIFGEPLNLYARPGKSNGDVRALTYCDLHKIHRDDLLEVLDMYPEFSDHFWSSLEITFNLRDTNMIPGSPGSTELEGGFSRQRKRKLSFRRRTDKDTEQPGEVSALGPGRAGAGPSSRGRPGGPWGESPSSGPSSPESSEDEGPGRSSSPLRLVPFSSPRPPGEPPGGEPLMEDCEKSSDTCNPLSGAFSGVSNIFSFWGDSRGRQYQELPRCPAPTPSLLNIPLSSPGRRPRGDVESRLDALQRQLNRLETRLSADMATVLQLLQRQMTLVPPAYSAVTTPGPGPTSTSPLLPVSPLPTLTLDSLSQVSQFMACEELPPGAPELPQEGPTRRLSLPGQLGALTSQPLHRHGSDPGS
Experimental: Compounds of the invention were pipetted into each well of pre-wet 96-well Millipore GF/C filter plates (#MSFCN6B50): 119 μl assay buffer, 1 μl test compound in 100% DMSO (or 100% DMSO only for total binding), 40 μl [3H] dofetilide (12.5 nM, final concentration 2.5 nM; Novartis radioisotope laboratory, East Hanover, N.J., USA, specific activity 15-45 Ci/mmol); 40 μl crude membrane suspension (ca. 15 μg protein). The final concentration of DMSO during the incubation was 0.5%. Incubations were performed at room temperature for 90 min. Non-specific binding (NSB) was defined as the binding remaining in the presence of 25 μM terfenadine (Sigma T9652). The incubations were terminated by rapid filtration on a Millipore filtration manifold, followed by three washes of 200 μA ice-cold assay buffer. The plates were left to dry overnight before adding 40 μA scintillant (MicroScint-20). The plates were then sealed (Sealing Tape SI, Nunc 236366) and read in a Wallac MicroBeta Trilux beta-counter for 1.5 min per well. Compounds were tested as 9-concentration response curves in duplicate, ranging from 30 μM to 3 nM in 1:3 dilution steps. Dilution curves were prepared in 100% DMSO. The reference compound (terfenadine) was tested as an eight-concentration response curve, ranging from 10 μM to 0.6 nM in 1:4 dilution steps.

PIM1 [3] = biological target: T3, PIM1 (Homo sapiens, UniProt P11309); test: KinaseGlo Pim1 ATP depletion assay; assay type: biochemical
T3 sequence (P11309 whole entry): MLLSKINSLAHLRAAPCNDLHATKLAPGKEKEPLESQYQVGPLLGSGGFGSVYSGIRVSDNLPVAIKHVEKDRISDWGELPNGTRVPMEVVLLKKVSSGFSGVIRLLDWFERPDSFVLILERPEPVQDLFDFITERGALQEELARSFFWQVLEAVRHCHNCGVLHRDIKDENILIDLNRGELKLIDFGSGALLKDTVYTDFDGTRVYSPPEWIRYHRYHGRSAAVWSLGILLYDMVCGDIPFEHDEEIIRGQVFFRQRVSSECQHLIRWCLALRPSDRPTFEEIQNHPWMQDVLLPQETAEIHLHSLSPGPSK
Method in brief: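 2.5 nM PIM1 preincubated 15 min with compound and 40 μM BAD peptide in 50 mM HEPES pH 7.5, 5 mM MgCl2, 1 mM DTT, 0.05% BSA, 2.5% DMSO. The reaction was started with 20 μM ATP (final) and run to about 50% ATP depletion. Remaining ATP read by KinaseGlo Plus luminescence to give IC50.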

PIM2 [4] = biological target: T4, PIM2 (Homo sapiens, UniProt Q9P1W9); test: KinaseGlo Pim2 ATP depletion assay; assay type: biochemical
T4 sequence (Q9P1W9 whole entry): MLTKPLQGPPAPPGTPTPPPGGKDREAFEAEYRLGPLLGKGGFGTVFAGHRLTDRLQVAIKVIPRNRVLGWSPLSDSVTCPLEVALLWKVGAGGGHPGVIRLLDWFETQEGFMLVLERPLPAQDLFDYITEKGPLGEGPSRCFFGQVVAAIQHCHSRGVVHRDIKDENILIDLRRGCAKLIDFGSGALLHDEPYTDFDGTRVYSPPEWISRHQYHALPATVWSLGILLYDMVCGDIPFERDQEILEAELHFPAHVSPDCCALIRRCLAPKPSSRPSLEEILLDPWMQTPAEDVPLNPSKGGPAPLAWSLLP
Method in brief: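 Luminescent ATP-depletion read-out of PIM2 phosphorylating BAD peptide (RSRHSSYPAGT-OH). Final conditions: 5 nM PIM2, 4 μM ATP, 10 μM peptide, 2.5% DMSO in 50 mM HEPES pH 7.5, 5 mM MgCl2, 1 mM DTT, 0.05% BSA. Enzyme–peptide preincubated 15 min with compound; reaction run to ~50% ATP depletion.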

GSK3β = GSK3β (Homo sapiens, UniProt P49841); test: GSK3β ATP depletion assay; assay type: biochemical; details: read-out: GSK3b IC50
Sequence of GSK3β (P49841 whole entry, species assumed): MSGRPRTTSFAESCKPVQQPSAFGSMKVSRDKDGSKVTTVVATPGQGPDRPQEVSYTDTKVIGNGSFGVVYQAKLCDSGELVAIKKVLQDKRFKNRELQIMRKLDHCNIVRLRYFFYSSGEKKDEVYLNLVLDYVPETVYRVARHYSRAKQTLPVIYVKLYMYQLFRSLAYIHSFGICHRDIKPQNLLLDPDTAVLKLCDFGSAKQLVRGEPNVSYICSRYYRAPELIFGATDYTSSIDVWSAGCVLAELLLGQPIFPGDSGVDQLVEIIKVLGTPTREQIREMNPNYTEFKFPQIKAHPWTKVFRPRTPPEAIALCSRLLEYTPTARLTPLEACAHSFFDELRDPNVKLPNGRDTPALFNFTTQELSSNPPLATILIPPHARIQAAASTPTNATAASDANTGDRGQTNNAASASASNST
Method in brief: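 Human GSK3β (5 nM) preincubated 15 min with 10 μM biotinylated phospho-CREB peptide in pH 7.5 Tris buffer (15 mM MgCl2, 1 mM DTT, 0.1% BSA, 2.5% DMSO). Reaction started with 2 μM ATP and run to about 50% ATP depletion. Remaining ATP measured by KinaseGlo luminescence.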

PIM3 [5] = biological target: T1, PIM3; test: Pim 3 AlphaScreen assay (high ATP); assay type: biochemical; details: read-out: Pim3 IC50
Method in brief: (§1)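 This is a bead-based AlphaScreen run at high ATP (11-125× Km) with biotin-Bad peptide (100 nM in the substrate mix), in 50 mM Hepes pH 7.5, 5 mM MgCl2, 0.05% BSA, 0.01% Tween-20, 1 mM DTT and 2.5% DMSO final. After ~2 h the reaction was stopped with EDTA. Phospho-peptide was detected overnight with anti-phospho Ser/Thr antibody on Protein A and streptavidin beads, giving IC50.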

PIM1 [6] = biological target: T3, PIM1; test: Pim 1 AlphaScreen assay (high ATP); assay type: biochemical; details: read-out: Pim1 IC50
Method in brief: as §1

PIM2 [7] = biological target: T4, PIM2; test: Pim 2 AlphaScreen assay (high ATP); assay type: biochemical; details: read-out: Pim2 IC50
Method in brief: as §1

[8] = Homo sapiens, KMS-11, KMS11-Luc cells

| pEC50 [1, 8] | pIC50 (PIM3 [2]) | pIC50 (PIM1 [3]) | pIC50 (PIM2 [4]) | pIC50 (GSK3β) | pEC50 ([1]; KMS11-Luc cells) | pIC50 (PIM3 [5]) | pEC50 ([1]; Homo sapiens, KMS-11, KMS11 cells, cell proliferation, read-out: KMS11-Luc EC50) | pIC50 (PIM1 [6]) | pIC50 (PIM2 [7]) | pIC50 (GSK3β; ATP depletion assay) | Compound | pIC50 (hERG) |
| --- | --- | --- | --- | --- | --- | --- | --- | --- | --- | --- | --- | --- |
| 6.70 | 9.00 | 9.00 | 8.70 | 7.00 | – | – | – | – | – | – | CC[C@]1(O)[C@H](C)O[C@H](c2ccncc2NC(=O)c2ccc(F)c(-c3c(F)cccc3F)n2)C[C@@H]1O (stereo in doubt) [Example 76, 6-(2,6-difluorophenyl)-N-(4-((2S,4S,5R,6S)-5-ethyl-4,5-dihydroxy-6-methyltetrahydro-2H-pyran-2-yl)pyridin-3-yl)-5-fluoropicolinamide] | < 4.52 |
| 5.92 | 8.70 | 9.00 | 8.52 | 6.79 | – | – | – | – | – | – | C[C@@H]1O[C@H](c2ccncc2NC(=O)c2ccc(F)c(-c3c(F)cccc3F)n2)C[C@H](O)[C@@]1(C)O (stereo in doubt) [Example 112, 6-(2,6-difluorophenyl)-N-(4-((2S,4S,5R,6S)-4,5-dihydroxy-5,6-dimethyltetrahydro-2H-pyran-2-yl)pyridin-3-yl)-5-fluoropicolinamide] | < 4.52 |
| 5.02 | 7.72 | 9.00 | 6.49 | 7.60 | – | – | – | – | – | – | C[C@H]1C[C@@H](O)C[C@@H](c2ccncc2NC(=O)c2csc(-c3c(F)cccc3F)n2)O1 (stereo in doubt) [Example 127, 2-(2,6-difluorophenyl)-N-(4-((2S,4R,6S)-4-hydroxy-6-methyltetrahydro-2H-pyran-2-yl)pyridin-3-yl)thiazole-4-carboxamide] | < 4.52 |
| 5.04 | 8.22 | 9.00 | 7.55 | 6.56 | – | – | – | – | – | – | C[C@H]1C[C@@H](O)C[C@@H](c2ccncc2NC(=O)c2ccc(F)c(-c3c(F)cccc3F)n2)O1 (stereo in doubt) [Example 128, 6-(2,6-difluorophenyl)-5-fluoro-N-(4-((2S,4R,6S)-4-hydroxy-6-methyltetrahydro-2H-pyran-2-yl)pyridin-3-yl)picolinamide] | < 4.52 |
| – | – | – | – | – | – | 8.59 | 6.51 | 10.15 | 7.73 | 6.19 | CSc1ccc(F)c(-c2nc(C(=O)Nc3cnccc3[C@H]3C[C@@H](N)[C@](C)(O)[C@@H](C)O3)ccc2F)c1F [Example 327, N-(4-((2R,4R,5S,6R)-4-amino-5-hydroxy-5,6-dimethyltetrahydro-2H-pyran-2-yl)pyridin-3-yl)-6-(2,6-difluoro-3-(methylthio)phenyl)-5-fluoropicolinamide] | – |

Continued, compound first:

| Compound | pEC50 [1, 8] | pIC50 (PIM3 [2]) | pIC50 (PIM1 [3]) | pIC50 (PIM2 [4]) | pIC50 (GSK3β) | pEC50 ([1]; KMS11-Luc cells) | pIC50 (PIM3 [5]) | pEC50 ([1]; Homo sapiens, KMS-11, KMS11 cells, cell proliferation, read-out: KMS11-Luc EC50) | pIC50 (PIM1 [6]) | pIC50 (PIM2 [7]) | pIC50 (GSK3β; ATP depletion assay) | pIC50 (hERG) |
| --- | --- | --- | --- | --- | --- | --- | --- | --- | --- | --- | --- | --- |
| CC1C(c2ccncc2NC(=O)c2ccc(F)c(-c3c(F)cccc3F)n2)OC(C)[C@@H](O)C1O (stereo in doubt) [Example 64, 6-(2,6-difluorophenyl)-N-(4-((2S,3R,4S,5S,6S)-4,5-dihydroxy-3,6-dimethyltetrahydro-2H-pyran-2-yl)pyridin-3-yl)-5-fluoropicolinamide] | 6.10 | 8.70 | 9.00 | 7.80 | 6.26 | – | – | – | – | – | – | < 4.52 |
| CC1C(c2ccncc2NC(=O)c2ccc(F)c(-c3c(F)cccc3F)n2)OC(C)[C@H](O)C1O (stereo in doubt) [Example 65, 6-(2,6-difluorophenyl)-N-(4-((2R,3S,4R,5R,6R)-4,5-dihydroxy-3,6-dimethyltetrahydro-2H-pyran-2-yl)pyridin-3-yl)-5-fluoropicolinamide] | 5.08 | 8.52 | 9.00 | 7.34 | 7.29 | – | – | – | – | – | – | < 4.52 |
| C[C@@H]1O[C@H](c2ccncc2NC(=O)c2ccc(F)c(-c3c(F)cccc3F)n2)[C@@H](F)[C@H](O)[C@@]1(C)O (stereo in doubt) [Example 71, 6-(2,6-difluorophenyl)-5-fluoro-N-(4-((2R,3S,4R,5R,6S)-3-fluoro-4,5-dihydroxy-5,6-dimethyltetrahydro-2H-pyran-2-yl)pyridin-3-yl)picolinamide] | 5.19 | 8.22 | 9.00 | 7.28 | 5.83 | – | – | – | – | – | – | < 4.52 |
| CC[C@]1(O)[C@H](O)C[C@H](c2ccncc2NC(=O)c2nc(-c3c(F)cccc3F)ncc2N)O[C@@H]1C [Example 16, 5-amino-2-(2,6-difluorophenyl)-N-(4-((2R,4R,5S,6R)-5-ethyl-4,5-dihydroxy-6-methyltetrahydro-2H-pyran-2-yl)pyridin-3-yl)pyrimidine-4-carboxamide] | – | 8.70 | 9.00 | 8.52 | 7.00 | 5.71 | – | – | – | – | – | < 4.52 |
| CC[C@]1(O)[C@H](O)C[C@H](c2ccncc2NC(=O)c2nc(-c3c(F)cccc3F)c(F)cc2N)O[C@@H]1C [Example 27, 3-amino-6-(2,6-difluorophenyl)-N-(4-((2R,4R,5S,6R)-5-ethyl-4,5-dihydroxy-6-methyltetrahydro-2H-pyran-2-yl)pyridin-3-yl)-5-fluoropicolinamide] | – | 9.00 | 9.00 | 9.00 | 6.60 | – | – | – | – | – | – | < 4.52 |
| [2H][C@@H]1[C@@H](O)[C@H](O)[C@@H](CC)O[C@@]1([2H])c1ccncc1NC(=O)c1ccc(F)c(-c2c(F)cccc2F)n1 [Example 54, 6-(2,6-difluorophenyl)-N-(4-((2R,4R,5S,6R)-6-ethyl-4,5-dihydroxy-2,3-didueterotetrahydro-2H-pyran-2-yl)pyridin-3-yl)-5-fluoropicolinamide] | 5.68 | 8.70 | 9.00 | 8.52 | 6.88 | – | – | – | – | – | – | < 4.52 |
| O=C(Nc1cnccc1[C@H]1C[C@@H](O)[C@H](O)[C@@H](CCl)O1)c1ccc(F)c(-c2c(F)cccc2F)n1 [Example 56, N-(4-((2R,4R,5S,6S)-6-(chloromethyl)-4,5-dihydroxytetrahydro-2H-pyran-2-yl)pyridin-3-yl)-6-(2,6-difluorophenyl)-5-fluoropicolinamide] | 5.08 | 8.70 | 9.00 | 8.52 | 7.14 | – | – | – | – | – | – | < 4.52 |
| O=C(Nc1cnccc1[C@@H]1C[C@H](O)CC2(CC2)O1)c1ccc(F)c(-c2c(F)cccc2F)n1 [Example 60, 6-(2,6-difluorophenyl)-5-fluoro-N-(4-((5S,7S)-7-hydroxy-4-oxaspiro[2.5]octan-5-yl)pyridin-3-yl)picolinamide] | < 5.00 | – | – | 7.55 | 7.04 | – | – | – | – | – | – | < 4.52 |
| CC[C@@]1(O)[C@H](O)C[C@H](c2ccncc2NC(=O)c2ccc(F)c(-c3c(F)cccc3F)n2)O[C@@H]1C [Example 74, 6-(2,6-difluorophenyl)-N-(4-((2R,4R,5R,6R)-5-ethyl-4,5-dihydroxy-6-methyltetrahydro-2H-pyran-2-yl)pyridin-3-yl)-5-fluoropicolinamide] | 5.44 | 8.30 | 9.00 | 7.96 | 6.50 | – | – | – | – | – | – | < 4.52 |
